Patent publication US12187723B2 (BRISTOL-MYERS SQUIBB COMPANY, priority 2019, dated 2025)

How the values were obtained:
human TLR7 = target: T1, human TLR7 (Homo sapiens, UniProt Q9NYK1); test: TLR7 inhibition reporter assay (HEK-Blue SEAP); format: cell-based; details: HEK-Blue cells overexpressing human TLR7, gardiquimod 7.5 μM, 22 hour incubation
T1 construct: host or cells: HEK-Blue cells
T1 sequence (Q9NYK1 27-1049): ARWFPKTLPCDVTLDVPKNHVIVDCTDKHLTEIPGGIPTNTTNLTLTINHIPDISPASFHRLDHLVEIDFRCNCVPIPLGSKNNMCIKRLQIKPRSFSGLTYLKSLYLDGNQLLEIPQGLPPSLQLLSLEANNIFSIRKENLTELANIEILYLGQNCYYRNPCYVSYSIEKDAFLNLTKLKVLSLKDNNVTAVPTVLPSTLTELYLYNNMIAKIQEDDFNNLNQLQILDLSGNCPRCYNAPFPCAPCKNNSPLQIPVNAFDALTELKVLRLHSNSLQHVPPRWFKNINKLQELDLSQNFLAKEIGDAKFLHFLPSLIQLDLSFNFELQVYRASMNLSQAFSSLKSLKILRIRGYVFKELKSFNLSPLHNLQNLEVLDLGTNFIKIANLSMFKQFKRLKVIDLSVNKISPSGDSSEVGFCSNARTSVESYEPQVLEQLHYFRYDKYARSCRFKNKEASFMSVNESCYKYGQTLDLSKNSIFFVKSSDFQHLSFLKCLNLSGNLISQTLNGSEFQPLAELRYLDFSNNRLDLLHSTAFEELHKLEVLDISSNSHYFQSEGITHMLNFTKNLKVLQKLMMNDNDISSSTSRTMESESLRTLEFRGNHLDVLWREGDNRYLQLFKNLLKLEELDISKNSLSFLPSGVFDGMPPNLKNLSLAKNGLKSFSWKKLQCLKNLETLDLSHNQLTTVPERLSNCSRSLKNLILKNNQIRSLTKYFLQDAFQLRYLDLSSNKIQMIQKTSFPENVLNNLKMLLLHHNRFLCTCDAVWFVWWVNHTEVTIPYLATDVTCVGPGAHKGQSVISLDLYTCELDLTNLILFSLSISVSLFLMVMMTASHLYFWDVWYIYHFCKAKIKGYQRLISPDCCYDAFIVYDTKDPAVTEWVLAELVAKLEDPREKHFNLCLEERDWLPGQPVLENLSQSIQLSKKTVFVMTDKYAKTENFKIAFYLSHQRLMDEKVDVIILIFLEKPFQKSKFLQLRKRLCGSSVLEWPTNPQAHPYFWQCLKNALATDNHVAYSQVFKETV
Method in brief: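 22 h, 37° C, 5% CO2 incubation; compounds 0.05 nM-50 μM final; TLR7 cells 15000/well, TLR8 20,000/well. Readout: SEAP via HEK-Blue Detection medium. % inhibition = signal reduction versus agonist + DMSO wells, referenced to known inhibitor.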

human TLR9 = target: T2, human TLR9 (Homo sapiens, UniProt Q9NR96); test: TLR9 inhibition reporter assay (HEK-Blue SEAP); format: cell-based; details: HEK-Blue cells overexpressing human TLR9, ODN2006 5 nM, 22 hour incubation
T2 construct: host or cells: HEK-Blue cells
T2 sequence (Q9NR96 26-1032): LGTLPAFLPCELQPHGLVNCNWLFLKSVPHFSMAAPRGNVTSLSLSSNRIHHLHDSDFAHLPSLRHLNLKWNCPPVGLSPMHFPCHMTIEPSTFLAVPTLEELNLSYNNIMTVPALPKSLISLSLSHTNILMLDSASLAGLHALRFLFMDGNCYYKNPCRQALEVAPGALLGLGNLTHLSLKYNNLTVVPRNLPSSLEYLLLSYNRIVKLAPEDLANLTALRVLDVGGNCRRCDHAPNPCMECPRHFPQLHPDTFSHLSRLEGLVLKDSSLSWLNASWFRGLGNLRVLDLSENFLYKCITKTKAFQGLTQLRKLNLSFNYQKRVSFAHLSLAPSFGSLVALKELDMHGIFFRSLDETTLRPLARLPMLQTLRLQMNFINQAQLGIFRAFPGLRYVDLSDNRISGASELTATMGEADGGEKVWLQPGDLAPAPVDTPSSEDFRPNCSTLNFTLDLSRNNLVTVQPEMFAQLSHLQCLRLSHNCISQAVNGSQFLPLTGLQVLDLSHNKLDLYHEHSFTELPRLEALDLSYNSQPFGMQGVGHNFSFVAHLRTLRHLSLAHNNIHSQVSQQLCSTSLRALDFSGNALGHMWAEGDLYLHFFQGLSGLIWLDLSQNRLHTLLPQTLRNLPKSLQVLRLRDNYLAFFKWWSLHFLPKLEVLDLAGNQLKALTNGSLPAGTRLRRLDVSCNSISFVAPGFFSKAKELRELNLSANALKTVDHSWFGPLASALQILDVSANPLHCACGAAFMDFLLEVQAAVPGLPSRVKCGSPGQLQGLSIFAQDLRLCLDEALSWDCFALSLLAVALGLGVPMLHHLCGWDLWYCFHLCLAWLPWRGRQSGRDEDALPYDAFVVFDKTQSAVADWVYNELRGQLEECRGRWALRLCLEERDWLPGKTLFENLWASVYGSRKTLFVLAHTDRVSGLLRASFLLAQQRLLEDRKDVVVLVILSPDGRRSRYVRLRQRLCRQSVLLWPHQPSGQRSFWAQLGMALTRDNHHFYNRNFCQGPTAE
Method in brief: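 Compound treatment: 30 min, RT, 0.05 nM–50 μM final. Agonist: TLR7 gardiquimod 7.5 μM; TLR8 R848 15.9 μM; TLR9 ODN2006 5 nM. Incubation 22 h, 37 °C, 5% CO2. Readout SEAP, HEK-Blue Detection.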

IC50 (human TLR7) | IC50 (human TLR9) | Compound
13.4 nM | 23000 nM | COc1c(C)c(-c2cc3[nH]c(=O)n(C4CCC(N5CC(OC)C5)CC4)c3cc2C(C)C)cn2ncnc12 (centres unmarked) [Example 266, 6-isopropyl-5-(8-methoxy-7-methyl-[1,2,4]triazolo[1,5-a]pyridin-6-yl)-1-(4-(3-methoxyazetidin-1-yl)cyclohexyl)-1,3-dihydro-2H-benzo[d]imidazol-2-one]
105 nM | 381 nM | Cc1cc2c(cc1-c1cc(C)c3ncnn3c1)[nH]c(=O)n2C1CCCNC1 (centres unmarked) [1 EC, 6-methyl-5-(8-methyl-[1,2,4]triazolo[1,5-a]pyridin-6-yl)-1-(piperidin-3-yl)-1,3-dihydro-2H-benzo[d]imidazol-2-one]
79.5 nM | 8500 nM | Cc1cc2c(cc1-c1cc(C)c3ncnn3c1)[nH]c(=O)n2[C@@H]1CCCN(C2CCOCC2)C1 [Example 27, (R)-6-methyl-5-(8-methyl-[1,2,4]triazolo[1,5-a]pyridin-6-yl)-1-(1-(tetrahydro-2H-pyran-4-yl)piperidin-3-yl)-1,3-dihydro-2H-benzo[d]imidazol-2-one]
16.5 nM | 3790 nM | Cc1c(-c2cc3[nH]c(=O)n(C4CCC(N5CC6(COC6)C5)CC4)c3cc2C(C)C)cn2ncnc2c1C (single isomer, unassigned) [Example 298]
4.25 nM | 24300 nM | COCCNC1CCC(n2c(=O)[nH]c3cc(-c4cn5ncnc5c(OC)c4C)c(C(C)C)cc32)CC1 (centres unmarked) [Example 258]
1.38 nM | 7100 nM | COC[C@@H]1CCN(C2CCC(n3c(=O)[nH]c4cc(-c5cc(OC)c6ncnn6c5)c(C(C)C)cc43)CC2)C1 (single isomer, unassigned) [Example 290]
7.18 nM | 19100 nM | COc1c(C)c(-c2cc3[nH]c(=O)n(C4CCC(N5CC(OC)C5)CC4)c3cc2C(C)C)cn2ncnc12 (centres unmarked) [Example 265, 6-isopropyl-5-(8-methoxy-7-methyl-[1,2,4]triazolo[1,5-a]pyridin-6-yl)-1-(4-(3-methoxyazetidin-1-yl)cyclohexyl)-1,3-dihydro-2H-benzo[d]imidazol-2-one]
30.2 nM | 14900 nM | COc1cc(-c2cc3[nH]c(=O)n(C4CCC(N5CCC(F)(F)CC5)CC4)c3cc2C(C)C)cn2ncnc12 (single isomer, unassigned) [Example 247, 1-(4-(4,4-difluoropiperidin-1-yl)cyclohexyl)-6-isopropyl-5-(8-methoxy-[1,2,4]triazolo[1,5-a]pyridin-6-yl)-1,3-dihydro-2H-benzo[d]imidazol-2-one]
19.3 nM | 2160 nM | Cc1cc2c(cc1-c1cc(C)c3ncnn3c1)[nH]c(=O)n2[C@H]1CC[C@@H](N)CC1 [1 EE]
2.89 nM | 10800 nM | Cc1c(-c2cc3[nH]c(=O)n(C4CCC(N5CC(F)C5)CC4)c3cc2C(C)C)cn2ncnc2c1C (centres unmarked) [Example 279, 5-(7,8-dimethyl-[1,2,4]triazolo[1,5-a]pyridin-6-yl)-1-(4-(3-fluoroazetidin-1-yl)cyclohexyl)-6-isopropyl-1,3-dihydro-2H-benzo[d]imidazol-2-one]
6.78 nM | 16800 nM | Cc1c(-c2cc3[nH]c(=O)n(C4CCC(N5CCCC(F)C5)CC4)c3cc2C(C)C)cn2ncnc2c1C (centres unmarked) [Example 274, 5-(7,8-dimethyl-[1,2,4]triazolo[1,5-a]pyridin-6-yl)-1-(4-(3-fluoropiperidin-1-yl)cyclohexyl)-6-isopropyl-1,3-dihydro-2H-benzo[d]imidazol-2-one]
31.4 nM | > 50000 nM | COc1cc(-c2cc3[nH]c(=O)n(C4CCC(N5CC(F)(F)C5)CC4)c3cc2C(C)C)cn2ncnc12 (single isomer, unassigned) [Example 296]
11.1 nM | 2960 nM | Cc1cc2c(cc1-c1cc(C)c3ncnn3c1)[nH]c(=O)n2[C@H]1CC[C@@H](NCCC(F)(F)F)CC1 [Example 31]
12.4 nM | 1580 nM | CCN[C@H]1CC[C@H](n2c(=O)[nH]c3cc(-c4cc(C)c5ncnn5c4)c(C)cc32)CC1 [Example 24, 1-((1r,4s)-4-(ethylamino)cyclohexyl)-6-methyl-5-(8-methyl-[1,2,4]triazolo[1,5-a]pyridin-6-yl)-1,3-dihydro-2H-benzo[d]imidazol-2-one]
2.39 nM | 7380 nM | COC1CN(C2CCC(n3c(=O)[nH]c4cc(-c5cn6ncnc6c(C)c5C)c(C(C)C)cc43)CC2)C1 (single isomer, unassigned) [Example 277, 5-(7,8-dimethyl-[1,2,4]triazolo[1,5-a]pyridin-6-yl)-6-isopropyl-1-(4-(3-methoxyazetidin-1-yl)cyclohexyl)-1,3-dihydro-2H-benzo[d]imidazol-2-one]
0.5 nM | 2000 nM | COc1cc(-c2cc3[nH]c(=O)n(C4CCC(N(C)CCC(F)(F)F)CC4)c3cc2C(C)C)cn2ncnc12 (single isomer, unassigned) [Example 249, 6-isopropyl-5-(8-methoxy-[1,2,4]triazolo[1,5-a]pyridin-6-yl)-1-(4-(methyl(3,3,3-trifluoropropyl)amino)cyclohexyl)-1,3-dihydro-2H-benzo[d]imidazol-2-one]
1.2 nM | 35200 nM | COc1cc(-c2cc3[nH]c(=O)n(C4CCC(N5CCC(F)(F)C5)CC4)c3cc2C(C)C)cn2ncnc12 (single isomer, unassigned) [Example 294, 1-(4-(3,3-difluoropyrrolidin-1-yl)cyclohexyl)-6-isopropyl-5-(8-methoxy-[1,2,4]triazolo[1,5-a]pyridin-6-yl)-1,3-dihydro-2H-benzo[d]imidazol-2-one]
10.1 nM | 14400 nM | Cc1c(-c2cc3[nH]c(=O)n(C4CCC(N5CCC6(CC5)COC6)CC4)c3cc2C(C)C)cn2ncnc2c1C (single isomer, unassigned) [Example 282, 1-(4-(2-oxa-7-azaspiro[3.5]nonan-7-yl)cyclohexyl)-5-(7,8-dimethyl-[1,2,4]triazolo[1,5-a]pyridin-6-yl)-6-isopropyl-1,3-dihydro-2H-benzo[d]imidazol-2-one]
0.7 nM | 4280 nM | COc1cc(-c2cc3[nH]c(=O)n(C4CCC(N5CC[C@H](F)C5)CC4)c3cc2C(C)C)cn2ncnc12 (stereo partly drawn) [Example 286, (S)-1-(4-(3-fluoropyrrolidin-1-yl)cyclohexyl)-6-isopropyl-5-(8-methoxy-[1,2,4]triazolo[1,5-a]pyridin-6-yl)-1,3-dihydro-2H-benzo[d]imidazol-2-one]
